Data as given in ChEMBL document CHEMBL1126964, “Antibacterial activity of long-chain alcohols: the role of hydrophobic alkyl groups” (1993).
In brackets after ≈: the same amount, converted by molar mass.

Columns and labels:
[1] = tested on: Cutibacterium acnes; assay: Minimum inhibitory concentration against Propionibacterium acnes was determined; assay type: functional
[2] = tested on: Staphylococcus aureus; assay: Minimum inhibitory concentration against Staphylococcus aureus was determined; assay type: functional

Row | Structure (SMILES) | MIC [1] | MIC [2]
1 | CCCCCCCCCO [NONANOL] | 100 µg/mL (≈ 693 µM) | 200 µg/mL (≈ 1390 µM)
2 | CCCCCCCCCCCCCCO [MYRISTYL ALCOHOL] | 1.56 µg/mL (≈ 7.28 µM) | > 800 µg/mL
3 | CCCCCCCCCCCCCCCCCCCCO [1-EICOSANOL] | > 800 µg/mL | > 800 µg/mL
4 | CCCCCCCCCCCCCCCO | 0.78 µg/mL (≈ 3.41 µM) | > 800 µg/mL
5 | CC(C)=CCC/C(C)=C/CO [GERANIOL] | 400 µg/mL (≈ 2590 µM) | 800 µg/mL (≈ 5190 µM)
6 | CCCCCCCO [1-HEPTANOL] | 400 µg/mL (≈ 3440 µM) | > 800 µg/mL
7 | CCCCCCCCCCCCCCCCCCO [CETOSTEARYL ALCOHOL] | > 800 µg/mL | > 800 µg/mL
8 | CCCCCCCCCCCCCO [TRIDECAN-1-OL] | 1.56 µg/mL (≈ 7.79 µM) | > 800 µg/mL
9 | CC(C)=CCC/C(C)=C/CC/C(C)=C/CCC(C)O (stereo not given) | 1.56 µg/mL (≈ 5.9 µM) | > 800 µg/mL
10 | C=CC(C)(O)CCC=C(C)C (stereo not given) [LINALOOL] | > 800 µg/mL | > 800 µg/mL
11 | CCCCCCCCCCO [DECANOL] | 25 µg/mL (≈ 158 µM) | 50 µg/mL (≈ 316 µM)
12 | C=CC(C)(O)CC/C=C(\C)CCC=C(C)C (stereo not given) [NEROLIDOL] | 25 µg/mL (≈ 112 µM) | 50 µg/mL (≈ 225 µM)
13 | CC(C)=CCC/C(C)=C/CCC(C)O (stereo not given) | 25 µg/mL (≈ 127 µM) | 50 µg/mL (≈ 255 µM)
14 | CCCCCCCCCCCO [UNDECANOL] | 12.5 µg/mL (≈ 72.5 µM) | 25 µg/mL (≈ 145 µM)
15 | CCCCCCCCCCCCCCCCCO | > 800 µg/mL | > 800 µg/mL
16 | CCCCCCCCO [OCTANOL] | 200 µg/mL (≈ 1540 µM) | 800 µg/mL (≈ 6140 µM)
17 | CC(C)=CCC/C(C)=C/CC/C(C)=C/CO [FARNESOL] | 6.25 µg/mL (≈ 28.1 µM) | 6.25 µg/mL (≈ 28.1 µM)
18 | CCCCCCCCCCCCO [DODECANOL] | 3.13 µg/mL (≈ 16.8 µM) | 6.25 µg/mL (≈ 33.5 µM)
19 | CCCCCCCCCCCCCCCCO [CETYL ALCOHOL] | 0.78 µg/mL (≈ 3.22 µM) | > 800 µg/mL
20 | CCCCCCO [1-HEXANOL] | > 800 µg/mL | > 800 µg/mL
